How the values were obtained:
[1] = tested on: normal cells (NOR-10, MCF 10A); assay: Cell viability (MTT) without laser irradiation, normal cells; assay type: cell-based, murine and human; conditions: without laser irradiation (dark)
Method: (§1) Cell Culture. Cancerous (4T1 [murine] and MDA-MB-231 [human]) and noncancerous (NOR-10 [murine] and MCF-10A [human]) cell lines were purchased from American Type Culture Collection (ATCC, Manassas, Va.). All cells were cultured in DMEM, and supplemented with 10% (v:v) fetal bovine serum and 1% (v:v) antibiotic solution (100 IU/mL penicillin and […]). All cells were maintained at 37° C. in 5% CO2 and in a humidified atmosphere.
(§2) PDT. For PDT, 4T1, MDA-MB-231, NOR-10, and MCF-10A cells were cultured for 24 hours at a density of 5×10^3 on coverslips. Next, cells were exposed to Al-PC, apoHb-Al-PC-Hp, and apoHb-Hp in culture medium at different concentrations. Later, the cells were irradiated with a laser (λ=670 nm) at energy densities between 0.0 J/cm2 and 4 J/cm2 for 15 minutes in the dark.
(§3) Cell Viability. Cell viability was assessed using the MTT assay, which is converted by the mitochondria of viable cells to an insoluble purple precipitate. Briefly, after receiving their treatment, cells were washed with PBS twice and then incubated with 0.5 mg/mL of MTT in culture medium for 2 hours. Then, the MTT solution was washed away, and the purple precipitate was extracted from the cells with 150 μL of dimethyl sulfoxide (DMSO). The absorption was then measured at λ=595 nm using a spectrophotometer (Spectramax; Molecular Devices).

[2] = tested on: cancerous cells (4T1, MDA-MB-231); assay type: cell-based; conditions: without laser irradiation (dark)
Method: as §1, §2, §3

[3] = unit not given; cited from earlier work
[4] = Stability of apoHb-Al-PC on dialysis against PBS; assay type: physicochemical
Method: Stability of ApoHb-Al-PC. […] The sample was then dialyzed against PBS using 6-8 kDa cellulose dialysis membranes to remove any residual EtOH. Dialysis was performed over three days with daily exchange of the PBS buffer. The UV-visible absorbance spectra of samples were measured before and after dialysis.

Hp [5] = assay: HPLC-SEC of apoHb-Mn-IX binding to Hp; set-up: species or system human; conditions: excess apoHb, detection of Mn-IX
Method: Diagnostic/therapeutic solutions tested here consisted of either Mn-porphyrin IX chloride (Mn-IX) or aluminum phthalocyanine (Al-PC) chloride. The Mn-IX solution was made by dissolving 2.5 mg of Mn-IX in 0.5 mL of 0.1 M NaOH. For Al-PC, 1 mg of Al-PC was dissolved in 1 mL of pure EtOH, then 50 μL of the saturated solution was diluted into 1 mL of pure EtOH (the second dilution ensured that the Al-PC is monomeric in solution). […] From the stock diagnostic/therapeutic solutions, either 2 μl of the stock Mn-IX or 100 μl of the Al-PC solutions was added to the protein samples. The resultant mixtures had their absorbance spectras measured via UV-visible spectroscopy and were separated via size exclusion chromatography (SEC) using an Acclaim SEC-1000 (4.6×300 mm) column (Thermo Fisher Scientific, Waltham, Mass.) attached to a Dionex UltiMate 3000 system (Thermo Fisher Scientific, Waltham, Mass.). The mobile phase consisted of 50 mM potassium phosphate, pH 7.4.
Target sequence in this assay (P00738 19-160 limits assumed): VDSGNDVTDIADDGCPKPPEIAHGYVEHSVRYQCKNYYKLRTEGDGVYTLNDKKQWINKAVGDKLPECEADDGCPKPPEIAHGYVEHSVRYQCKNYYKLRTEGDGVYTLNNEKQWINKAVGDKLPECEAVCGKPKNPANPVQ
Target sequence in this assay (P00738 162-406 limits assumed): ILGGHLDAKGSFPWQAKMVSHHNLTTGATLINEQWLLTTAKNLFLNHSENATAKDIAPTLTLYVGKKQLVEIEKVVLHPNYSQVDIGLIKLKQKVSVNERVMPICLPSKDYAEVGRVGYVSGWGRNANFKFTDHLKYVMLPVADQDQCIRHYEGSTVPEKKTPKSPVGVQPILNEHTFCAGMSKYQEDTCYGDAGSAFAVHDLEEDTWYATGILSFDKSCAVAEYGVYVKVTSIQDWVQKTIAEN
Target sequence in this assay (P69905 2-142 partner limits assumed): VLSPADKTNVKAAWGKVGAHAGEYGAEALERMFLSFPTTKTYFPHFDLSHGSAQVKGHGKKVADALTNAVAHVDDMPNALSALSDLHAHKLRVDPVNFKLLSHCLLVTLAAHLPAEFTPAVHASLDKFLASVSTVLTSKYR
Target sequence in this assay (P68871 2-147 partner limits assumed): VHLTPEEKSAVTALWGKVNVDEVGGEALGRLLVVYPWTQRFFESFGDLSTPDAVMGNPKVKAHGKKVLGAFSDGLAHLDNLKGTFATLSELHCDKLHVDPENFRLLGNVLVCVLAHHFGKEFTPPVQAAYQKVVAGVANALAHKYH

[6] = Specificity of Al-PC binding to proteins (UV-visible absorbance at 680 nm); conditions: absorbance at 680 nm after Al-PC addition in PBS
Method: The stock Al-PC solution was diluted 100× into 100% EtOH.
The concentrations of Hp, HSA, Hb and rHb in solution were 1.0 mg/mL, 0.35 mg/ml (and 3.5 mg/ml), 0.35 mg/mL, and 0.33 mg/mL respectively.

[7] = Hb/PolyHb NO dioxygenation kinetics, stopped-flow; assay type: biochemical; conditions: 20° C., 0.1 M pH 7.4 PBS
Source text: (§4) The Hb used in this exampler was purified from human RBCs via tangential flow filtration (TFF), as described previously. Hb was polymerized with glutaraldehyde under complete deoxygenation in the tense (T) quaternary state at a 25:1 molar ratio of glutaraldehyde to Hb. After polymerization, PolyHb was clarified, purified, and buffer exchanged into a modified Ringer's lactate solution using TFF. Modified polyester sulfone hollow fiber filters with a molecular weight cutoff (MWCO) of 100 kDa were used to remove unpolymerized Hb from solution. The PolyHb solution was concentrated to 12 g/dL. […] The size distribution of PolyHb, by particle volume, was measured using dynamic light scattering (DLS) (Brookhaven Instrument Inc. BS-200M, Holtsville, N.Y.). The rheology of PolyHb solutions was measured using a DV3T-CP cone and plate rheometer (Brookfield AMETEK, Middleboro, Mass.) with cone spindle CPA-40Z. The O2-Hb/PolyHb equilibrium binding curves were measured using a Hemox Analyzer (TCS Scientific Corp., New Hope, Pa.). The Hb/PolyHb kinetics of O2 offloading (koff,O2) and NO dioxygenation kinetics (kox,NO) were measured with an Applied Photophysics SF-17 microvolume stopped-flow spectrophotometer (Applied Photophysics Ltd., Surrey, United Kingdom) using protocols previously described by Rameez and Palmer. […]

Hp [8] = assay: Kinetics of Hp binding to Hb and PolyHb, stopped-flow fluorescence; set-up: species or system human; conditions: 20° C., PBS 0.1 M pH 7.4
Method: The Hp used for this study was purified from human Cohn Fraction IV derived from pooled human plasma. The resulting Hp contained both Hp2-1 and Hp2-2 phenotypes. The total amount of protein in solution was estimated with a Bradford assay. The Hb binding capacity of Hp was assessed by monitoring Hb binding to Hp at 413 nm with HPLC-SEC and was used to quantify the concentration of Hp. The reaction of Hp with either unmodified human Hb or PolyHb synthesized in this study was monitored using an SX-20 stopped stopped-flow spectrophotometer using previously described methods (Applied Photophysics, Leatherhead, UK). Excess Hp (2:1, Hp:PolyhHb on a Hb tetramer binding basis) was allowed to react with PolyHb to form the resulting Hp-PolyHb complex. The resulting changes in size distribution after Hp binding was estimated with HPLC-SEC using previously described methods. All measurements were taken from the same sample used in the animal study.
Target sequence in this assay (P00738 162-406 limits assumed): as the sequence (P00738 162-406 limits assumed) above

Hp [9] = conditions: cited from earlier work
Target sequence in this assay (P00738 162-406 limits assumed): as above

[10] = O2 equilibrium binding curves of rHb and native Hb (Hemox analyzer); assay type: biochemical; conditions: 37° C.; for P50: O2 affinity; for N (cooperativity coefficient n): O2 equilibrium
Method: rHb Analysis. Various liganded forms of rHb were analyzed via UV-Vis spectroscopy and compared against native Hb. The oxy-rHb and oxyHb equilibrium binding curves were measured using a Hemox analyzer (TCS Scientific Corp., New Hope, Pa.) at 37° C. The spectra of rHb was measured after one day reaction with excess heme (stage 1), after reduction and diafiltration with the modified HEMOX buffer (stage 2), after placing the rHb mixture under a CO atmosphere (stage 3), after heating the CO-rHb mixture and removing precipitate (stage 4), and after re-oxygenating the rHb sample (stage 5). Spectral deconvolution software was developed in the Python programming language (Python Software Foundation Beaverton, Oreg.) using the non-linear least squares function curve_fit of the SciPy package to determine the fraction of various liganded forms of rHb that contribute to the final spectra of the rHb mixture (i.e. containing metHb, hemichrome, oxyHb, HbCO and heme).

[11] = O2-Hb/PolyHb equilibrium binding curves (Hemox Analyzer); assay type: biochemical
Source text: as §4

[12] = Rheology of PolyHb solutions (cone and plate rheometer); assay type: physicochemical
Source text: as §4

Molecule: [Cl][Al]1[n]2c3c4ccccc4c2N=C2N=C(N=c4c5ccccc5c([n]41)=NC1=NC(=N3)c3ccccc31)c1ccccc12 [Al-PC, aluminum phthalocyanine chloride]
- lethal dose for 50% cell-death (LD50) [1]: 10 µM
- lethal dose for 50% cell-death (LD50) [2]: 7 µM

Molecule: Hb in human RBCs: Hb in human red blood cells, literature O2 affinity
- O2 affinity P50, literature [3]: 29.3

Molecule: apoHb-Al-PC: Al-PC bound to apoHb
- stability in aqueous solution [4]: not stable in aqueous solution

Molecule: apoHb-Mn-IX: Mn-porphyrin IX bound to apoHb
- affinity of Hp (Hp [5]): higher affinity for apoHb-Mn-IX than to pure apoHb

Molecule: hHb: human hemoglobin prepared from red blood cells via tangential flow filtration [reference compound]
- Al-PC binding [6]: no appreciable binding of Al-PC
- rate of NO dioxygenation kox,NO [7]: 36.0±6.1
- rate constant of Hp binding (Hp [8]): 150000 ± 1000 M⁻¹ s⁻¹
- rate constant of Hp binding, literature (Hp [9]): 129000 M⁻¹ s⁻¹
- P50 [10]: 11.69 ± 0.88 mm Hg
- P50 ([10]; listed as Native hHb): 11.33±0.02 mm Hg
- P50 ([10]; listed as native Hb): 11.69±0.88 mm Hg
- N (cooperativity coefficient n) [10]: 2.73 ± 0.11^
- N (cooperativity coefficient n) ([10]; listed as Native hHb): 2.60±0.01
- N (cooperativity coefficient n) ([10]; listed as native Hb): 2.73±0.11
- cooperativity n [11]: 2.51±0.06
- oxygen affinity P50 [11]: 12.4±1.3 mm Hg
- viscosity [12]: 1.2±0.2 cP

Reference: patent US20220218834A1, “APOHEMOGLOBIN-HAPTOGLOBIN COMPLEXES AND METHODS OF USING THEREOF” (OHIO STATE INNOVATION FOUNDATION, priority 2019, published 2022)
